Measured values: paper PMC9377236, “Cytotoxic effects of extracts obtained from plants of the Oleaceae family: bio-guided isolation and molecular docking of new secoiridoids from Jasminum humile” (Pharmaceutical Biology, 2022)
≈ marks a conversion by molar mass, not a printed value.

Key:
[1] = test system: MCF-7 cell line; test: MTT cytotoxicity assay, MCF-7; type: cell-based, human; conditions: for IC50: Homo sapiens, MCF7, MCF-7 breast cancer cell line, MTT assay, mean ± SD; for SI, MCF-7: selectivity index = CC50 (Vero) / IC50 (MCF-7)
Experimental: (§1) The cytotoxic potential was measured against Vero cells as well as MCF-7, HepG-2, and THP-1 cell lines provided from VACSERA, Agouza, Cairo, Egypt using a microplate 3-(4,5-dimethythiazole-2yl)-2,5-diphenyl-tetrazolium bromide (MTT) method (Ashour et al. [2006]; Njeru and Muema [2007]). All experiments were repeated three times with doxorubicin (Sigma, USA) as a positive control and 0.1% DMSO media as the negative control, respectively.
(§2) The selectivity index (SI) was obtained after dividing the IC50 value of Vero cells (which can be expressed as CC50) by the specific IC50 of cancer cell lines. High (SI) indicates high anticancer activity and low cellular toxicity. Selectivity was considered to be valuable for those with (SI) greater than three (Oliveira et al. [2015]; Tsemeugne et al. [2021]; Yousefbeyk et al. [2022]).
(§3) All statistical analyses were performed using GraphPad Prism version 9.2.0 to calculate the half-maximal inhibitory concentration (IC50) and the half-maximal cytotoxic concentration (CC50) where the level of significance was set at ([…]). Quantitative data were expressed as mean ± standard deviation (SD). GraphPad Prism version 9.2.0 was also used to create multiple bar charts of the cytotoxic activity and cell viability.

[2] = test system: HepG-2 cell line; test: MTT cytotoxicity assay, HepG-2; type: cell-based, human; conditions: for IC50: Homo sapiens, HepG2, HepG-2 liver cancer cell line, MTT assay, mean ± SD; for SI, HepG-2: selectivity index = CC50 (Vero) / IC50 (HepG-2)
Experimental: as §1, §2, §3

[3] = MTT assay, cytotoxic concentration (CC50) on Vero cells; type: cell-based; conditions: African green monkey, mean ± SD, three repeats
Experimental: as §1, §3

[4] = test system: THP-1 cell line; test: MTT cytotoxicity assay, THP-1; type: cell-based, human; conditions: for IC50: Homo sapiens, THP-1 leukaemia cell line, MTT assay, mean ± SD; for SI, THP-1: selectivity index = CC50 (Vero) / IC50 (THP-1)
Experimental: as §1, §2, §3

SMILES: COc1cccc2c1C(=O)c1c(O)c3c(c(O)c1C2=O)C[C@@](O)(C(=O)CO)C[C@@H]3O[C@H]1C[C@H](N)[C@H](O)[C@H](C)O1 [Doxorubicin, doxorubicin, reference compound]
- IC50 [1]: 52.8 ± 5.36 µg/mL (≈ 97.1 µM)
- SI, MCF-7 [1]: 2.19
- IC50 [2]: 31.6 ± 6.58 µg/mL (≈ 58.2 µM)
- SI, HepG-2 [2]: 3.65
- CC50 [3]: 116 ± 6.1 µg/mL (≈ 213 µM)
- IC50 [4]: 47.8 ± 7.03 µg/mL (≈ 88 µM)
- SI, THP-1 [4]: 2.41

SMILES: CC=C1C(OC2OC(CO)C(O)C(O)C2O)OC=C(C(=O)OC)C1CC(=O)OCC(C)C1CC2OC(=O)C3=COC(OC4OC(CO)C(O)C(O)C4O)C(=CC)C3CC(=O)OCC1C2C (centres unmarked) [Compound 5, jasmoside]
- IC50 [1]: 41.3 ± 1.77 µg/mL (≈ 44.5 µM)
- SI, MCF-7 [1]: 5.09
- IC50 [2]: 66.5 ± 8.15 µg/mL (≈ 71.6 µM)
- SI, HepG-2 [2]: 3.16
- CC50 [3]: 210 ± 5.05 µg/mL (≈ 226 µM)
- IC50 [4]: 27.6 ± 4.63 µg/mL (≈ 29.7 µM)
- SI, THP-1 [4]: 7.62

SMILES: CC=C1C(OC2OC(CO)C(O)C(O)C2O)OC=C2C(=O)OC3CC(C(C)CO)C(COC(=O)CC21)C3C (centres unmarked) [Compound 3, jasminin]
- IC50 [1]: 28.6 ± 1.18 µg/mL (≈ 52.7 µM)
- SI, MCF-7 [1]: 1.57
- IC50 [2]: 44.2 ± 4.32 µg/mL (≈ 81.5 µM)
- SI, HepG-2 [2]: 1.01
- CC50 [3]: 44.7 ± 1.84 µg/mL (≈ 82.4 µM)
- IC50 [4]: 82.7 ± 15.7 µg/mL (≈ 152 µM)
- SI, THP-1 [4]: 0.54

SMILES: CC=C1C(OC)OC=C2C(=O)OC3CC(C(C)CO)C(COC(=O)CC21)C3C (single isomer, unassigned; (-)) [Compound 1, (-)-1-Methoxyjasmigenin]
- IC50 [1]: 78.9 ± 1.79 µg/mL (≈ 200 µM)
- SI, MCF-7 [1]: 0.78
- IC50 [2]: 59.8 ± 1.45 µg/mL (≈ 152 µM)
- SI, HepG-2 [2]: 1.03
- CC50 [3]: 61.7 ± 1.26 µg/mL (≈ 156 µM)
- IC50 [4]: 91.5 ± 14.9 µg/mL (≈ 232 µM)
- SI, THP-1 [4]: 0.67

SMILES: OC[C@@H](O)[C@@H](O)[C@H](O)[C@H](O)CO [Compound 7, D-mannitol]
- IC50 [1]: 161 ± 11.9 µg/mL (≈ 882 µM)
- SI, MCF-7 [1]: 1.09
- IC50 [2]: 69.1 ± 12.3 µg/mL (≈ 379 µM)
- SI, HepG-2 [2]: 2.52
- CC50 [3]: 173 ± 6.2 µg/mL (≈ 951 µM)
- IC50 [4]: 214 ± 22.1 µg/mL (≈ 1180 µM)
- SI, THP-1 [4]: 0.81

SMILES: O=c1ccc2ccccc2o1 [Compound 6, coumarin]
- IC50 [1]: 194 ± 8.8 µg/mL (≈ 1330 µM)
- SI, MCF-7 [1]: 1.01
- IC50 [2]: 165 ± 7.08 µg/mL (≈ 1130 µM)
- SI, HepG-2 [2]: 1.19
- CC50 [3]: 196 ± 13.3 µg/mL (≈ 1340 µM)
- IC50 [4]: 296 ± 25.7 µg/mL (≈ 2020 µM)
- SI, THP-1 [4]: 0.66

SMILES: CC(CO)C1CC2OC(=O)C3=COC(C)C(C=O)C3CC(=O)OCC1C2C (single isomer, unassigned; (-)) [Compound 2, (-)-1-Methyl-9-aldojasmigenin]
- IC50 [1]: 60.6 ± 2.3 µg/mL (≈ 159 µM)
- SI, MCF-7 [1]: 1.00
- IC50 [2]: 43.3 ± 4.78 µg/mL (≈ 114 µM)
- SI, HepG-2 [2]: 1.40
- CC50 [3]: 60.5 ± 2.72 µg/mL (≈ 159 µM)
- IC50 [4]: 68.9 ± 9.71 µg/mL (≈ 181 µM)
- SI, THP-1 [4]: 0.88

SMILES: CC=C1C(OC2OC(CO)C(O)C(O)C2O)OC=C2C(=O)OCC(C)C3(O)CCC(C)C3COC(=O)CC21 (centres unmarked) [Compound 4, isojasminin]
- IC50 [1]: 43.1 ± 3.02 µg/mL (≈ 79.5 µM)
- SI, MCF-7 [1]: 2.35
- IC50 [2]: 33.5 ± 2.32 µg/mL (≈ 61.7 µM)
- SI, HepG-2 [2]: 3.03
- CC50 [3]: 102 ± 3.03 µg/mL (≈ 187 µM)
- IC50 [4]: 51.1 ± 10.3 µg/mL (≈ 94.1 µM)
- SI, THP-1 [4]: 1.99
